In patent US20180008535A1, “Drug-Device Unit Containing Quinagolide” (Ferring B.V., priority 2014, published 2018):

Experiments:
[1] = PK variables for quinagolide administered by an intravaginal ring in clinical study 000155; format: in vivo, healthy women; conditions: for Tmax: median
Description: Following intravaginal administration the plasma concentration of quinagolide increased to reach a maximum at approximately 37-39 hours with a subsequent slow decline until the ring was removed (see FIG. 15). The mean time for reaching a maximum serum concentration was similar between all three dose groups but with substantial inter-individual variation. Cmax increased with increasing dose while the mean terminal half-life estimations were appropriately the same in all three doses (Table 21: above).

[2] = In vivo release profile of vaginal rings in clinical study 000155; set-up: species or system healthy women
[3] = Plasma concentration of quinagolide and active metabolites in sheep with intravaginal rings; format: in vivo; conditions: first and second sheep trials
From the text: During the first and second sheep trials, the plasma concentration of quinagolide (Q) was monitored over the 28 day period. The plasma concentrations of active metabolites (M1 and M2: see FIG. 13) were also monitored in the sheep. The results are illustrated in FIG. 10 (see Tables 14 and 17 for quinagolide dose).

[4] = vaginal ring dose load 400 μg, target release 5 μg/day
[5] = vaginal ring dose load 800 μg, target release 10 μg/day
[6] = vaginal ring dose load 1200 μg, target release 15 μg/day

CCCN1C[C@@H](NS(=O)(=O)N(CC)CC)C[C@@H]2Cc3c(O)cccc3C[C@H]21 [quinagolide, N,N-diethyl-N′-[(3S,4aS, 10aR)-6-hydroxy-1-propyl-1,2,3,4,4a,5,10,10a-octahydrobenzo[g]quinolin-3-yl]sulfamide]
AUC Day 0-28 (Hpg/mL) ([1]; 400 μg intravaginal ring, Mean (SD)): 738 (236) Hpg/mL | AUC Day 0-28 (Hpg/mL) ([1]; 800 μg intravaginal ring, Mean (SD)): 1497 (379) Hpg/mL | AUC Day 0-28 (Hpg/mL) ([1]; 1200 μg intravaginal ring, Mean (SD)): 3297 (1040) Hpg/mL | Cmax ([1]; female, human, plasma, 400 ug, 400 μg intravaginal ring, Mean (SD)): 3.4 pg/mL | Tmax ([1]; female, human, plasma, 400 ug, 400 μg intravaginal ring): 48 h | Cmax ([1]; female, human, plasma, 800 ug, 800 μg intravaginal ring, Mean (SD)): 5.3 pg/mL | Tmax ([1]; female, human, plasma, 800 ug, 800 μg intravaginal ring): 48 h | Cmax ([1]; female, human, plasma, 1200 ug, 1200 μg intravaginal ring, Mean (SD)): 10.9 pg/mL | Tmax ([1]; female, human, plasma, 1200 ug, 1200 μg intravaginal ring): 36 h | half-life ([1]; female, human, plasma, other: intravaginal ring, 400 ug, printed in the 400 μg line only, Mean (SD), read-out: T½ (converted)): 14 h | time at which plasma concentration of quinagolide reached a maximum ([1]; intravaginal administration, all three dose groups): 37 to 39 h | Average release 35 Days [2, 4]: 9.4 µg/day | Average release 7 days [2, 4]: 10.4 µg/day | Average release 28 days [2, 4]: 8.8 µg/day | Average release 35 Days [2, 5]: 16.8 µg/day | Average release 7 days [2, 5]: 24.1 µg/day | Average release 28 days [2, 5]: 12.6 µg/day | Average release 35 Days [2, 6]: 21.3 µg/day | Average release 7 days [2, 6]: 43.4 µg/day | Average release 28 days [2, 6]: 29.7 µg/day | quinagolide concentration in the plasma at any point during the study [3]: ≤ 50 pg/mL

CCCN1CC(NS(N)(=O)=O)CC2Cc3c(O)cccc3CC21 (centres unmarked) [Batch M2]
molar plasma concentration, fold lower than the quinagolide [3]: approximately 10 fold

CCCN1CC(NS(=O)(=O)NCC)CC2Cc3c(O)cccc3CC21 (centres unmarked) [Batch M1]
molar plasma concentration, fold lower than the quinagolide [3]: approximately 10 fold
